Source: ChEMBL document CHEMBL1124940, “N-[(arylmethoxy)phenyl] carboxylic acids, hydroxamic acids, tetrazoles, and sulfonyl carboxamides. Potent orally active leukotriene D4 antagonists of novel structure” (J Med Chem, 1990)
Each block holds one compound with its values, some of them ahead of it.

Legend:
Cavia porcellus [1] = assay: -log dissociation constant was determined In vitro in isolated guinea pig trachea after intraduodenal administration (before 10 min); format: ADME, organism-based; conditions: in vivo, other
Cavia porcellus [2] = assay: In vitro LTD4-induced bronchoconstriction. i n isolated guinea pig trachea by injecting intraduodenally.; format: functional; conditions: intraduodenal
Cavia porcellus [3] = assay: In vitro inhibition of ovalbumin-induced bronchoconstriction in isolated guinea pig trachea was determined after intraduodenal aministration; format: functional
Cavia porcellus [4] = assay: Inhibition of LTD4-induced broncho constriction in Guinea pig after intragastrical administration of a dose of 25 mg/kg; format: functional; conditions: po, route intragastric
Cavia porcellus [5] = assay: Tested for the inhibition of ovalbumin- induced bronchoconstriction in Guinea pig, injected intraduodenally, dose of 25 mg/kg; format: functional; conditions: route intraduodenal
Cavia porcellus [6] = assay: Tested for the inhibition of LTD4-induced broncho constriction in Guinea pig, injected intraduodenally at a dose of 25 mg/kg; format: functional; conditions: route intraduodenal
Cavia porcellus [7] = assay: Inhibition of LTD4-induced broncho constriction in Guinea pig after intragastrical administration of a dose of 3 mg/kg; format: functional; conditions: po, route intragastric
Cavia porcellus [8] = assay: Inhibition of ovalbumin-induced broncho constriction in Guinea pig after intragastrical administration of a dose of 25 mg/kg; format: functional; conditions: po, route intragastric
Cavia porcellus [9] = assay: Tested for the inhibition of LTD4-induced bronchoconstriction in Guinea pig, injected intragastrically, dose of 25 mg/kg; format: functional; conditions: po, route intragastric
Rattus norvegicus = assay: Antiinflammatory effect was studied in a rat carrageenan paw edema (CE) assay at 50 mg/kg; format: functional
Cavia porcellus [10] = assay: Tested for the inhibition of LTD4-induced broncho constriction in Guinea pig, injected intraduodenally at a dose of 5 mg/kg; format: functional; conditions: route intraduodenal
Cavia porcellus [11] = assay: Tested for the inhibition of LTD4-induced bronchoconstriction in Guinea pig, injected intraduodenally, dose is 3 mg/kg; format: functional; conditions: route intraduodenal
Cavia porcellus [12] = assay: Tested for the inhibition of ovalbumin- induced bronchoconstriction in Guinea pig, injected intragastrically, dose of 25 mg/kg; format: functional; conditions: po, route intragastric
Cavia porcellus [13] = assay: Tested for the inhibition of ovalbumin- induced bronchoconstriction in Guinea pig, injected intraduodenally, dose is 25 mg/kg.; format: functional; conditions: route intraduodenal
Cavia porcellus [14] = assay: Tested for the inhibition of LTD4-induced bronchoconstriction in Guinea pig, injected intragastrically, dose of 10 mg/kg; format: functional; conditions: po, route intragastric
Cavia porcellus [15] = assay: Tested for the inhibition of LTD4-induced bronchoconstriction in Guinea pig, injected intragastrically, dose of 3 mg/kg.; format: functional; conditions: po, route intragastric
Cavia porcellus [16] = assay: Tested for the inhibition of ovalbumin- induced bronchoconstriction in Guinea pig, injected intragastrically, dose of 10 mg/kg.; format: functional; conditions: po, route intragastric
Cavia porcellus [17] = assay: Tested for the inhibition of ovalbumin- induced bronchoconstriction in Guinea pig, injected intraduodenally, dose of 3 mg/kg.; format: functional; conditions: route intraduodenal
Cavia porcellus [18] = assay: In vitro inhibition of LTD4-induced bronchoconstriction into isolated guinea pig trachea by injecting intragastrically; format: functional; conditions: po
Cavia porcellus [19] = assay: Tested for the inhibition of LTD4-induced bronchoconstriction in Guinea pig, compound injected intragastrically, dose of 25 mg/kg; format: functional; conditions: po, route intragastric
[20] = molecular target: T1, Polyunsaturated fatty acid 5-lipoxygenase (Rattus norvegicus, UniProt P12527); assay: Concentration for 50% inhibition of A-23187-stimulated radiolabeled 5-HETE and TXB2 synthesis by PMN 5-lipoxygenase; format: functional
T1 sequence (P12527 whole entry): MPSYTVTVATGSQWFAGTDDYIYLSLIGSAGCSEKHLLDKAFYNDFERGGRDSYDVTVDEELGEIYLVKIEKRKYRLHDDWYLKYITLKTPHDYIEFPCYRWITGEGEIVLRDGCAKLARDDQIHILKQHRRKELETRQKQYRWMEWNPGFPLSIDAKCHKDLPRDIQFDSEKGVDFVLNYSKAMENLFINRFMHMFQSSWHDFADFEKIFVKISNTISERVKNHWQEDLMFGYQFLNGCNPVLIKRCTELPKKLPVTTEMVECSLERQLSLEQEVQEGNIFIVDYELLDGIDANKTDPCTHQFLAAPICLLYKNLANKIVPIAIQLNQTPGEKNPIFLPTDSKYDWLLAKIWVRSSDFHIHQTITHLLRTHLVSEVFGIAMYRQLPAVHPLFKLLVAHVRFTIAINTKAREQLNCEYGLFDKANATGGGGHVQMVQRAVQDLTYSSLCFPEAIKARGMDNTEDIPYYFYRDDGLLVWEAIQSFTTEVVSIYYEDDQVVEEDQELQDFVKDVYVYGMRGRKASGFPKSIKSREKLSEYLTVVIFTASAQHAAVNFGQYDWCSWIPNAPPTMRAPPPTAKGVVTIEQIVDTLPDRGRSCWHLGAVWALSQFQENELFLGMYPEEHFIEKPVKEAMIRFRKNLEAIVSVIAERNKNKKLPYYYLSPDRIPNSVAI

Cavia porcellus [21] = assay: Tested for the inhibition of ovalbumin induced bronchoconstriction in Guinea pig, compound injected intraduodenally, dose is 25 mg/kg; format: functional; conditions: route intraduodenal
Cavia porcellus [22] = assay: Tested for the inhibition of LTD4-induced bronchoconstriction in Guinea pig, compound injected intragastrically, dose of 3 mg/kg; format: functional; conditions: po, route intragastric
Cavia porcellus [23] = assay: Tested for the inhibition of ovalbumin- induced bronchoconstriction in Guinea pig, compound injected intragastrically, dose of 25 mg/kg; format: functional; conditions: po, route intragastric
Cavia porcellus [24] = assay: In vitro Inhibition of ovalbumin-induced bronchoconstriction in isolated guinea pig trachea by injecting intraduodenally; format: functional; conditions: intraduodenal
Cavia porcellus [25] = assay: In vitro inhibition of LTD4-induced bronchoconstriction in isolated guinea pig trachea by injecting intraduodenally; format: functional; conditions: intraduodenal
Cavia porcellus [26] = assay: Tested for the inhibition of ovalbumin- induced bronchoconstriction in Guinea pig, compound injected intragastrically, dose of 3 mg/kg; format: functional; conditions: po, route intragastric
Cavia porcellus [27] = assay: Dissociation constant was determined in vitro after intraduodenal administration in isolated guinea pig trachea; format: ADME, organism-based; conditions: in vivo, other
Cavia porcellus [28] = organism: Cavia porcellus; assay: Dose of antagonist that produces 50% inhibition of ovalbumin-induced bronchoconstriction; format: functional
Cavia porcellus [29] = assay: Tested for the inhibition of ovalbumin induced bronchoconstriction in Guinea pig, compound injected intraduodenally, dose is 10 mg/kg; format: functional; conditions: route intraduodenal
Cavia porcellus [30] = assay: Inhibition of LTD4-induced broncho constriction in Guinea pig after intraduodenal administration of a dose of 3 mg/kg; format: functional

pKb (Cavia porcellus [1]): 6.5
SMILES: COC(=O)CCC(=O)N(O)c1cccc(OCc2ccc3ccccc3n2)c1
ED50 (Cavia porcellus [2]): 3.3 mg/kg
ED50 (Cavia porcellus [3]): 27.4 mg/kg

SMILES: O=C(O)Cc1ccc(OCc2ccc3ccccc3n2)cc1
inhibition in vivo at 25 mg/kg (Cavia porcellus [4]): < -4%

SMILES: CONC(=O)Cc1cccc(OCc2nc3ccccc3s2)c1
inhibition in vivo at 25 mg/kg (Cavia porcellus [4]): < -4%

SMILES: CS(=O)(=O)NC(=O)c1cccc(OCc2ccc3ccccc3n2)c1
inhibition in vivo at 25 mg/kg (Cavia porcellus [5]): < 13%
inhibition in vivo at 25 mg/kg (Cavia porcellus [6]): 90%
inhibition in vivo at 3 mg/kg (Cavia porcellus [7]): 20%
inhibition in vivo at 25 mg/kg (Cavia porcellus [4]): < 66%

SMILES: CONC(=O)Cc1cccc(OCc2nc3ccccc3n2C)c1
inhibition in vivo at 25 mg/kg (Cavia porcellus [4]): < 58%

SMILES: Cc1ccc(S(=O)(=O)NC(=O)CCc2cccc(OCc3ccc4ccccc4n3)c2)cc1
inhibition in vivo at 25 mg/kg (Cavia porcellus [8]): < 26%
inhibition in vivo at 25 mg/kg (Cavia porcellus [6]): 97%
inhibition in vivo at 25 mg/kg (Cavia porcellus [9]): < 66%

SMILES: CC(C)Cc1ccc(C(C)C(=O)O)cc1 (stereo unspecified) [IBUPROFEN]
inhibition in vivo at 50 mg/kg (Rattus norvegicus): 63%

SMILES: c1ccc2nc(COc3ccc(-c4nn[nH]n4)cc3)ccc2c1
inhibition in vivo at 5 mg/kg (Cavia porcellus [10]): < 28%

SMILES: O=C(NO)c1cccc(OCc2ccc3ccccc3n2)c1
inhibition in vivo at 25 mg/kg (Cavia porcellus [6]): < 33%

SMILES: Cc1ccc(S(=O)(=O)NC(=O)Cc2cccc(OCc3nc4ccccc4s3)c2)cc1
inhibition in vivo at 3 mg/kg (Cavia porcellus [11]): 83%
inhibition in vivo at 25 mg/kg (Cavia porcellus [6]): < 97%
inhibition in vivo at 25 mg/kg (Cavia porcellus [12]): < 70%
inhibition in vivo at 25 mg/kg (Cavia porcellus [13]): 78%
inhibition in vivo at 10 mg/kg (Cavia porcellus [14]): < 55%
inhibition in vivo at 3 mg/kg (Cavia porcellus [15]): 80%
inhibition in vivo at 10 mg/kg (Cavia porcellus [16]): 42%
inhibition in vivo at 3 mg/kg (Cavia porcellus [17]): 44%

SMILES: c1cc(Cc2nnn[nH]2)cc(OCc2nc3ccccc3s2)c1
inhibition in vivo at 25 mg/kg (Cavia porcellus [6]): < 95%

IC50 [20]: 14.2 µM
pKb (Cavia porcellus [27]): 6.08
SMILES: CONC(=O)Cc1cccc(OCc2ccc3ccccc3n2)c1
ED50 (Cavia porcellus [18]): 7.9 mg/kg
inhibition in vivo at 50 mg/kg (Rattus norvegicus): < 41%
inhibition in vivo at 25 mg/kg (Cavia porcellus [19]): 86%
inhibition in vivo at 25 mg/kg (Cavia porcellus [21]): 56%
inhibition in vivo at 3 mg/kg (Cavia porcellus [22]): 2%
inhibition in vivo at 25 mg/kg (Cavia porcellus [23]): 83%
ED50 (Cavia porcellus [24]): 7.3 mg/kg
ED50 (Cavia porcellus [25]): 1.8 mg/kg
inhibition in vivo at 3 mg/kg (Cavia porcellus [26]): 38%
ED50 (Cavia porcellus [28]): 3.6 mg/kg
inhibition in vivo at 10 mg/kg (Cavia porcellus [29]): 25%
inhibition in vivo at 3 mg/kg (Cavia porcellus [30]): 44%

SMILES: Cc1ccc(S(=O)(=O)NC(=O)Cc2cccc(OCc3ccc4ccccc4n3)c2)cc1
inhibition in vivo at 25 mg/kg (Cavia porcellus [6]): < 75%
inhibition in vivo at 25 mg/kg (Cavia porcellus [4]): < 16%
